# Measured values: patent publication US20240308976A1, “COMPOUNDS THAT MEDIATE PROTEIN DEGRADATION AND USES THEREOF” (Monte Rosa Therapeutics, Inc., priority 2021, published 2024)
# Experiments:
# GSPT1 = target: T1, GSPT1 (Homo sapiens, UniProt P15170+Q96SW2); assay: Immunofluorescence assay for activity to degrade GSPT1 in CAL-51 cells; type: cell-based; details: 6 h treatment, read-out: IF Class (GSPT1 degradation, DC50)
# T1 construct: CAL-51 cells were purchased from DSMZ (cat. Number ACC302); host or cells: CAL-51
# T1 sequence (P15170 whole entry): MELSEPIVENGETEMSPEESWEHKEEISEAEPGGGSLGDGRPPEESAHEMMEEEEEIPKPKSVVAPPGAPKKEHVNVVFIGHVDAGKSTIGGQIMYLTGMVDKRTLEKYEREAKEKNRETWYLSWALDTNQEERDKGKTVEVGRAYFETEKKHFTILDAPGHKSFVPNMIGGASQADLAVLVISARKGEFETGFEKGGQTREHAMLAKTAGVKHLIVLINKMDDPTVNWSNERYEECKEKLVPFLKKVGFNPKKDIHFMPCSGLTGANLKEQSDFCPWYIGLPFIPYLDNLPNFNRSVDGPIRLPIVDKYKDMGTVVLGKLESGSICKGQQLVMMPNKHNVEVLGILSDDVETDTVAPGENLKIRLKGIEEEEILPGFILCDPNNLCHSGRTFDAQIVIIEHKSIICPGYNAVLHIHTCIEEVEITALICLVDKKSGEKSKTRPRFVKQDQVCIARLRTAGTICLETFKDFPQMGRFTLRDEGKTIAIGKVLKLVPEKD
# T1 sequence (Q96SW2 whole entry): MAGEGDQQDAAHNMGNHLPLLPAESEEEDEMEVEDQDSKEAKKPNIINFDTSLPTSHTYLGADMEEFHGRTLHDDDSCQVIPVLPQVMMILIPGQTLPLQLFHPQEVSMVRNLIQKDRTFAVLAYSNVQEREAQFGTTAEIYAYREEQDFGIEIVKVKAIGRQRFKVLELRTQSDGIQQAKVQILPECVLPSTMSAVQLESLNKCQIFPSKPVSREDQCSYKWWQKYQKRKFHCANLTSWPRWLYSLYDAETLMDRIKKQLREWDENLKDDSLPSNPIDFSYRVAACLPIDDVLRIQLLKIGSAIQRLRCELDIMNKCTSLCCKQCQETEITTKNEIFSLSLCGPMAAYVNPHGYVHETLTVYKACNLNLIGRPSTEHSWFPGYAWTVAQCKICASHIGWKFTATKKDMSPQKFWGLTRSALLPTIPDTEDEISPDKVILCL
# T1 sequence (Q16531 2-1140 partner limits assumed): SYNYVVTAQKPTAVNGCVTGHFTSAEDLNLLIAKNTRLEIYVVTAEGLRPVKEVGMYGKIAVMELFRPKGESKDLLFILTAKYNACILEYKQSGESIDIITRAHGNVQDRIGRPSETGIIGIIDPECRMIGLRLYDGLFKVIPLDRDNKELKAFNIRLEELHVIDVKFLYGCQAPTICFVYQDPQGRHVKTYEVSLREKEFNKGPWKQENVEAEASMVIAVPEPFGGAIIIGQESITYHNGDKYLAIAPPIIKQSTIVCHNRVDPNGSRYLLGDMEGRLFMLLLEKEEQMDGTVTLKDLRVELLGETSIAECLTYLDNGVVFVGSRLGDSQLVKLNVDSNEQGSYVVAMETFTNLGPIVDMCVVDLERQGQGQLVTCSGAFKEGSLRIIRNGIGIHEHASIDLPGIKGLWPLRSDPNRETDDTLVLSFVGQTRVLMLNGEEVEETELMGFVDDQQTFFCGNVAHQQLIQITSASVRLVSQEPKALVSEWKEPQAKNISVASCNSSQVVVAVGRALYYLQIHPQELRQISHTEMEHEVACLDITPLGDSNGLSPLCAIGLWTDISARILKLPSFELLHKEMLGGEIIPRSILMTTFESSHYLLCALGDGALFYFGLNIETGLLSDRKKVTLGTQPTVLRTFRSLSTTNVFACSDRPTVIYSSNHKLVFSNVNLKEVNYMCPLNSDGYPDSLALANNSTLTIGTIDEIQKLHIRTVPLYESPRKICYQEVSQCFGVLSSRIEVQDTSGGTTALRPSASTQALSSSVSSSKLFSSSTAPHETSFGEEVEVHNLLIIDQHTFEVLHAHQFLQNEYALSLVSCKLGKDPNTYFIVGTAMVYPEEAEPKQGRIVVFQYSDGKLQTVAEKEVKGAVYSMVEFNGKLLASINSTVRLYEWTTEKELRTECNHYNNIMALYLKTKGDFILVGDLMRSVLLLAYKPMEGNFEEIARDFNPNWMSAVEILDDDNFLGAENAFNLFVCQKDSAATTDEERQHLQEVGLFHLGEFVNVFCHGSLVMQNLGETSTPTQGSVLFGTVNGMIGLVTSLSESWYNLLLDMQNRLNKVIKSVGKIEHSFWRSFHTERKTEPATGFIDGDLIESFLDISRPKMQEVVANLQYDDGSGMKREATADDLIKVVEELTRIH
# How it was run: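 CAL-51 cells treated 6 h with compound (30 μM to 0.1 nM), fixed, immunostained for GSPT1 with DAPI and phalloidin counterstains, imaged by high-content microscopy. Mean per-cell GSPT1 intensity normalized to controls; DC50 by non-linear regression.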
# CRBN-DDB1 = CRBN-DDB1 (Homo sapiens, UniProt Q96SW2); assay: Compound binding to CRBN by HTRF assay; details: CRBN-DDB1 2.5 nM, Cy5-Thalidomide 100 nM, 30 min at ambient temperature; read-out: HTRF Class (Cereblon binding, HTRF IC50)
# CRBN-DDB1, sequence (Q96SW2 whole entry): as the sequence (Q96SW2 whole entry) above
# CRBN-DDB1, sequence (Q16531 whole entry partner): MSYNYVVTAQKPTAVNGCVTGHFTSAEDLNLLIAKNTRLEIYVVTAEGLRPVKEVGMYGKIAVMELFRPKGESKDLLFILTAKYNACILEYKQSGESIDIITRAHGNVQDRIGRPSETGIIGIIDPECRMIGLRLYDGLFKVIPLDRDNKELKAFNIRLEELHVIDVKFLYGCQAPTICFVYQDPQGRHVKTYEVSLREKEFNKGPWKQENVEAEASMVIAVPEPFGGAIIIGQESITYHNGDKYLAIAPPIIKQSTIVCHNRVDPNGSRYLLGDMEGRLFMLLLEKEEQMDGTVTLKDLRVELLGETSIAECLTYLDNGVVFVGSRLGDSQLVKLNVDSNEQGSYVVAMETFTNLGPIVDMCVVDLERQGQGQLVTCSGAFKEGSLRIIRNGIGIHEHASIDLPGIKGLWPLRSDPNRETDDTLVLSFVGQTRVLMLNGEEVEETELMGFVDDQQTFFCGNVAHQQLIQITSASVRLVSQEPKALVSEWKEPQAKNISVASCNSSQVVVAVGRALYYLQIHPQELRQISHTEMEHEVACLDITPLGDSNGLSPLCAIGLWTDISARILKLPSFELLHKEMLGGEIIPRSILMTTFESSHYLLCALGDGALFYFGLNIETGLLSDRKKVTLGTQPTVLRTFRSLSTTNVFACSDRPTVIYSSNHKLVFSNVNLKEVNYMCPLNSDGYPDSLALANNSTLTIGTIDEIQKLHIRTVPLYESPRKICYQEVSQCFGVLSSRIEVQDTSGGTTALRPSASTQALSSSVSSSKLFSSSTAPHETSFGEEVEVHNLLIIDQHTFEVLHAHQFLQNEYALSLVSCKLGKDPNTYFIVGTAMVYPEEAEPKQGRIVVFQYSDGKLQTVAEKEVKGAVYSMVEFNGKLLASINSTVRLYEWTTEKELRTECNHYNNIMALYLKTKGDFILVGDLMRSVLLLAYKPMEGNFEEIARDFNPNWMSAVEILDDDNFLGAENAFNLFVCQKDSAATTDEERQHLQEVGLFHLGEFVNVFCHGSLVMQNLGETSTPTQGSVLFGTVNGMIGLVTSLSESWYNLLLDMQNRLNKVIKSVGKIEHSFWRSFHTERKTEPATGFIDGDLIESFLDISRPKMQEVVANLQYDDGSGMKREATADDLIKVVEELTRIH
# How it was run: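 Cy5-thalidomide (100 nM) displacement from His-tagged CRBN-DDB1 (2.5 nM) read by terbium-cryptate HTRF (665/620 nm), in 20 mM HEPES, 20 mM NaCl, 0.2 mM TCEP, 0.2 mM EDTA, 0.005% Tween20. Compounds tested as 10-point 1:3 series, 30 min at ambient temperature. Signal normalised to DMSO and lenalidomide controls; IC50 fitted, Ki by Cheng-Prusoff.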
Structure (SMILES),DC50 (GSPT1),IC50 (CRBN-DDB1)
"O=C1CCC(c2c(F)cc(N3CC(OC(=O)NC4CC(F)(F)C4)C3)cc2F)C(=O)N1 (centres unmarked) [Compound 88, 1-(4-(2,6-dioxopiperidin-3-yl)-3,5-difluorophenyl)azetidin-3-yl(3,3-difluorocyclobutyl)carbamate]",> 300 nM,100 to 1000 nM
"CC(C)(C)NC(=O)OC1CN(c2cc(F)c(C3CCC(=O)NC3=O)c(F)c2)C1 (centres unmarked) [Compound 89, 1-(4-(2,6-dioxopiperidin-3-yl)-3,5-difluorophenyl)azetidin-3-yl tert-butylcarbamate]",> 300 nM,100 to 1000 nM
"O=C1CCC(c2c(F)cc(N3CC(OC(=O)NC4CCC4)C3)cc2F)C(=O)N1 (centres unmarked) [Compound 90, 1-(4-(2,6-dioxopiperidin-3-yl)-3,5-difluorophenyl) azetidin-3-yl cyclobutylcarbamate]",> 300 nM,100 to 1000 nM
"O=C1CCC(c2c(F)cc(N3CC(OC(=O)NC4CCCC4)C3)cc2F)C(=O)N1 (centres unmarked) [Compound 92, 1-(4-(2,6-dioxopiperidin-3-yl)-3,5-difluorophenyl)azetidin-3-yl cyclopentylcarbamate]",> 300 nM,100 to 1000 nM
"O=C1CCC(c2c(F)cc(N3CC(OC(=O)NC4CCOCC4)C3)cc2F)C(=O)N1 (centres unmarked) [Compound 94, 1-(4-(2,6-dioxopiperidin-3-yl)-3,5-difluorophenyl)azetidin-3-yl (tetrahydro-2H-pyran-4-yl)carbamate]",> 300 nM,100 to 1000 nM
"O=C1CCC(c2c(F)cc(N3CC(OC(=O)NC4COC4)C3)cc2F)C(=O)N1 (centres unmarked) [Compound 95, 1-(4-(2,6-dioxopiperidin-3-yl)-3,5-difluorophenyl)azetidin-3-yl oxetan-3-ylcarbamate]",> 300 nM,100 to 1000 nM
"CC(C)(C)N1CC(NC(=O)OC2CN(c3cc(F)c(C4CCC(=O)NC4=O)c(F)c3)C2)C1 (centres unmarked) [Compound 126, 1-(4-(2,6-dioxopiperidin-3-yl)-3,5-difluorophenyl)azetidin-3-yl(1-(tert-butyl)azetidin-3-yl)carbamate]",> 300 nM,≤ 100 nM
"C[C@H](NC(=O)OC1CN(c2cc(F)c(C3CCC(=O)NC3=O)c(F)c2)C1)c1ccccc1 (stereo partly drawn) [Compound 130, 1-(4-(2,6-dioxopiperidin-3-yl)-3,5-difluorophenyl)azetidin-3-yl((S)-1-phenylethyl) carbamate]",> 300 nM,100 to 1000 nM
"CC(C)CNC(=O)OC1CN(c2cc(F)c(C3CCC(=O)NC3=O)c(F)c2)C1 (centres unmarked) [Compound 132, 1-(4-(2,6-dioxopiperidin-3-yl)-3,5-difluorophenyl)azetidin-3-yl isobutylcarbamate]",> 300 nM,100 to 1000 nM
"O=C1CCC(c2c(F)cc(N3CC(OC(=O)NCc4ccccc4)C3)cc2F)C(=O)N1 (centres unmarked) [Compound 137, 1-(4-(2,6-dioxopiperidin-3-yl)-3,5-difluorophenyl)azetidin-3-yl benzylcarbamate]",30 to 300 nM,≤ 100 nM
"O=C1CCC(c2c(F)cc(N3CC(OC(=O)NCC4COC4)C3)cc2F)C(=O)N1 (centres unmarked) [Compound 141, 1-(4-(2,6-dioxopiperidin-3-yl)-3,5-difluorophenyl) azetidin-3-yl (oxetan-3-ylmethyl)carbamate]",> 300 nM,≤ 100 nM
"O=C1CCC(c2c(F)cc(N3CC(OC(=O)N4CCC(F)(F)CC4)C3)cc2F)C(=O)N1 (centres unmarked) [Compound 142, 1-(4-(2,6-dioxopiperidin-3-yl)-3,5-difluorophenyl)azetidin-3-yl 4,4-difluoropiperidine-1-carboxylate]",> 300 nM,100 to 1000 nM
"O=C1CCC(c2c(F)cc(N3CC(OC(=O)N4CCCCC4)C3)cc2F)C(=O)N1 (centres unmarked) [Compound 143, 1-(4-(2,6-dioxopiperidin-3-yl)-3,5-difluorophenyl)azetidin-3-yl piperidine-1-carboxylate]",> 300 nM,100 to 1000 nM

# The remaining lines, values ahead:
DC50 (GSPT1),IC50 (CRBN-DDB1),Structure (SMILES)
30 to 300 nM,100 to 1000 nM,"O=C1CCC(c2c(F)cc(N3CC(OC(=O)NCC4CCC4)C3)cc2F)C(=O)N1 (centres unmarked) [Compound 91, 1-(4-(2,6-dioxopiperidin-3-yl)-3,5-difluorophenyl)azetidin-3-yl (cyclobutylmethyl)carbamate]"
≤ 30 nM,≤ 100 nM,"CC1(C)CCC(NC(=O)OC2CN(c3cc(F)c(C4CCC(=O)NC4=O)c(F)c3)C2)CC1 (centres unmarked) [Compound 93, 1-(4-(2,6-dioxopiperidin-3-yl)-3,5-difluorophenyl)azetidin-3-yl (4,4-dimethylcyclohexyl) carbamate]"
30 to 300 nM,100 to 1000 nM,"O=C1CCC(c2c(F)cc(N3CC(OC(=O)NCC4CC(F)(F)C4)C3)cc2F)C(=O)N1 (centres unmarked) [Compound 96, 1-(4-(2,6-dioxopiperidin-3-yl)-3,5-difluorophenyl)azetidin-3-yl ((3,3-difluorocyclobutyl)methyl)carbamate]"
≤ 30 nM,≤ 100 nM,"CC1(C)CC(NC(=O)OC2CN(c3cc(F)c(C4CCC(=O)NC4=O)c(F)c3)C2)C1 (centres unmarked) [Compound 97, 1-(4-(2,6-dioxopiperidin-3-yl)-3,5-difluorophenyl)azetidin-3-yl (3,3-dimethylcyclobutyl)carbamate]"
≤ 30 nM,≤ 100 nM,"C[C@@H](NC(=O)OC1CN(c2cc(F)c(C3CCC(=O)NC3=O)c(F)c2)C1)c1ccccc1 (stereo partly drawn) [Compound 123, 1-(4-(2,6-dioxopiperidin-3-yl)-3,5-difluorophenyl)azetidin-3-yl((R)-1-phenylethyl)carbamate]"
≤ 30 nM,≤ 100 nM,"C[C@H]1CC[C@H](NC(=O)OC2CN(c3cc(F)c(C4CCC(=O)NC4=O)c(F)c3)C2)CC1 (stereo partly drawn) [Compound 124, 1-(4-(2,6-dioxopiperidin-3-yl)-3,5-difluorophenyl)azetidin-3-yl((1R,4R)-4-methylcyclohexyl) carbamate]"
≤ 30 nM,100 to 1000 nM,"CC(C)CCNC(=O)OC1CN(c2cc(F)c(C3CCC(=O)NC3=O)c(F)c2)C1 (centres unmarked) [Compound 125, 1-(4-(2,6-dioxopiperidin-3-yl)-3,5-difluorophenyl)azetidin-3-yl isopentylcarbamate]"
≤ 30 nM,100 to 1000 nM,"O=C1CCC(c2c(F)cc(N3CC(OC(=O)NCC4CCCCC4)C3)cc2F)C(=O)N1 (centres unmarked) [Compound 127, 1-(4-(2,6-dioxopiperidin-3-yl)-3,5-difluorophenyl)azetidin-3-yl(cyclohexylmethyl) carbamate]"
≤ 30 nM,100 to 1000 nM,"O=C1CCC(c2c(F)cc(N3CC(OC(=O)N[C@H]4C[C@H](c5ccccc5)C4)C3)cc2F)C(=O)N1 (stereo partly drawn) [Compound 128, 1-(4-(2,6-dioxopiperidin-3-yl)-3,5-difluorophenyl)azetidin-3-yl((1R,3R)-3 phenylcyclobutyl) carbamate]"
30 to 300 nM,≤ 100 nM,"C[C@@H](NC(=O)OC1CN(c2cc(F)c(C3CCC(=O)NC3=O)c(F)c2)C1)C1CCCCC1 (stereo partly drawn) [Compound 129, 1-(4-(2,6-dioxopiperidin-3-yl)-3,5-difluorophenyl)azetidin-3-yl ((R)-1-cyclohexylethyl)carbamate]"
30 to 300 nM,100 to 1000 nM,"CCCCNC(=O)OC1CN(c2cc(F)c(C3CCC(=O)NC3=O)c(F)c2)C1 (centres unmarked) [Compound 131, 1-(4-(2,6-dioxopiperidin-3-yl)-3,5-difluorophenyl)azetidin-3-yl butylcarbamate]"
30 to 300 nM,100 to 1000 nM,"CO[C@H]1CC[C@H](NC(=O)OC2CN(c3cc(F)c(C4CCC(=O)NC4=O)c(F)c3)C2)CC1 (stereo partly drawn) [Compound 133, 1-(4-(2,6-dioxopiperidin-3-yl)-3,5-difluorophenyl)azetidin-3-yl ((1R,4R)-4-methoxycyclohexyl)carbamate]"
≤ 30 nM,≤ 100 nM,"O=C1CCC(c2c(F)cc(N3CC(OC(=O)NC4CCCCCC4)C3)cc2F)C(=O)N1 (centres unmarked) [Compound 134, 1-(4-(2,6-dioxopiperidin-3-yl)-3,5-difluorophenyl)azetidin-3-yl cycloheptylcarbamate]"
≤ 30 nM,≤ 100 nM,"CC1(NC(=O)OC2CN(c3cc(F)c(C4CCC(=O)NC4=O)c(F)c3)C2)CCCCC1 (centres unmarked) [Compound 135, 1-(4-(2,6-dioxopiperidin-3-yl)-3,5-difluorophenyl)azetidin-3-yl (1-methylcyclohexyl)carbamate]"
≤ 30 nM,≤ 100 nM,"O=C1CCC(c2c(F)cc(N3CC(OC(=O)NC4Cc5ccccc5C4)C3)cc2F)C(=O)N1 (centres unmarked) [Compound 136, 1-(4-(2,6-dioxopiperidin-3-yl)-3,5-difluorophenyl)azetidin-3-yl (2,3-dihydro-1H-inden-2-yl)carbamate]"
≤ 30 nM,≤ 100 nM,"O=C1CCC(c2c(F)cc(N3CC(OC(=O)NC4CC5(CCC5)C4)C3)cc2F)C(=O)N1 (centres unmarked) [Compound 138, 1-(4-(2,6-dioxopiperidin-3-yl)-3,5-difluorophenyl)azetidin-3-yl spiro[3.3]heptan-2-ylcarbamate]"
≤ 30 nM,≤ 100 nM,"O=C1CCC(c2c(F)cc(N3CC(OC(=O)NCC4CCCC4)C3)cc2F)C(=O)N1 (centres unmarked) [Compound 139, 1-(4-(2,6-dioxopiperidin-3-yl)-3,5-difluorophenyl)azetidin-3-yl (cyclopentylmethyl)carbamate]"
30 to 300 nM,≤ 100 nM,"O=C1CCC(c2c(F)cc(N3CC(OC(=O)N[C@@H]4CC5CCC4C5)C3)cc2F)C(=O)N1 (stereo partly drawn) [Compound 140, 1-(4-(2,6-dioxopiperidin-3-yl)-3,5-difluorophenyl)azetidin-3-yl(2R)-bicyclo[2.2.1]heptan-2-ylcarbamate]"
